Experimental data taken from patent US9475840B2, “Protease-resistant compounds useful as shuttles through the blood-brain barrier and shuttle-cargo constructs” (UNIVERSITAT DE BARCELONA, priority 2012, dated 2016).
Like-named read-outs stand apart in the source and are kept apart here. Where a SMILES comes first, the peptide text is derived from it. [ ]: non-standard residue; d: D form. Quantum Dot = not defined here

How the values were obtained:
[1] = test system: co-culture of brain endothelial cells and astrocytes; test: Transport across the BBB, in vitro co-culture cell assay (transwell); conditions: — = not detected in acceptor compartment; for Papp (×10^6) cm/s: apparent permeability, 2 h at 37° C., Ringer-HEPES buffer pH 7.4, triplicate, 50 μM or 0.75 nM (particles); for Transport (%) (2 h): percentage of transport after a 2 hours assay
Description: (§1) The evaluation method chosen to test the compounds of formula (I) and (II) of the invention was a cell-based assay consisting of a co-culture of brain endothelial cells and astrocytes, which allows to evaluate or to predict the transport of compounds through the BBB. […] Under these conditions endothelial cells are able to reach the confluence mimicking the BBB. […] Is commonly used model for permeation studies and toxicity of compounds across the BBB.
(§2) The co-culture assay was used to determine the capacity of the constructs cargo-shuttle to cross the BBB. […] The permeability tests were performed in Ringer-HEPES buffer at pH 7.4. The compound of interest was dissolved in the buffer to the desired concentration.
(§3) Once the endothelial cells were confluent on the filters (transwells) these were washed with Ringer-HEPES buffer. The acceptor well was filled with 800 μL of Ringer-HEPES buffer and the donor well with 200 μL of the solution of the compound to be studied. The system was incubated at 37° C. and 5% CO2 for 2 h. After that time the content of the acceptor and donor compartments were analyzed by HPLC, ICP or fluorescence measurements (depending on cargo anchored to the shuttle). Transport was also confirmed by mass spectrometry MALDI-TOF.
(§4) The apparent permeability was calculated using the following equation: Papp=(dQ/dt)*(1/A)*(1/C0)(cm/s)
(§5) Where (dQ/dt) is the amount of compound present in the compartment acceptor function of time (nmol/s). A is the area of the filter (cm2) and C0 is the initial concentration of the compound applied in the donor compartment (nmol/mL).
(§6) The values of permeability equal to or higher than 1×10-6 cm/s are considered exceptionally good, and values equal to or higher than 0.1×10-6 cm/s are considered good.

[2] = test system: co-culture of brain endothelial cells and astrocytes
Description: as §1, §2, §3, §4, §5, §6

[3] = Transport across the BBB, in vitro co-culture cell assay (transwell); conditions: pH 7.4
Description: as §1, §2, §3, §4, §5, §6

[4] = Stability of the shuttle in human serum; conditions: for half-life: human, serum
Protocol: At a range of times, 50 μL aliquots were collected to which methanol was added in order to precipitate the serum proteins. The samples were centrifuged, filtered and analysed by HPLC to determine the degree of degradation of the BBB-shuttle

Compound	Transport (%) (2 h) [1]	Papp [3] [×10⁻⁶ cm/s]	Papp (×10^6) cm/s [1]	also measured
Rhodamine b-L-Lys(Antibody)-D-Pro-D-Trp-D-Val-D-Pro-D-Ser-D-Trp-D-Met-D-Pro-D-Pro-D-Arg-D-His-D-Thr-NH2 [Example 18]			0.18 ± 0.05 (×10^6) cm/s	
H-Gly-D-Pro-D-Trp-D-Val-D-Pro-D-Ser-D-Trp-D-Met-D-Pro-D-Pro-D-Arg-D-His-D-Thr-NH2 [Example 2]				Transport (%) (2 h) [2]: 22.3 ± 2.6%; Papp (×10^6) cm/s ([2]; pH 7.4): 19.4 ± 1.8 (×10^6) cm/s
Rhodamine b-L-Lys(Antibody)-D-Pro-D-Trp-D-Val-D-Pro-D-Ser-D-Trp-D-Met-D-Pro-D-Pro-D-Arg-D-His-D-Thr-NH2 [Example 17]			0.16 ± 0.10 (×10^6) cm/s	
Quantum Dot-Gly-D-Pro-D-Trp-D-Val-D-Pro-D-Ser-D-Trp-D-Met-D-Pro-D-Pro-D-Arg-D-His-D-Thr-NH2 ({Quantum Dot}-G[dP][dW][dV][dP][dS][dW][dM][dP][dP][dR][dH][dT]-NH2; reading uncertain; also: quantum dot nanoparticle conjugate, printed as Quantum Dot-Gly-D-Pro-D-Trp-D-Val-D-Pro-D-Ser-D-Trp-D-Met-D-Pro-D-Pro-D-Arg-D-His-D-Thr-NH2) [Example 10]	0.31 ± 0.02		0.27 ± 0.03 (×10^6) cm/s	
CSCC[C@@H](NC(=O)[C@@H](Cc1c[nH]c2ccccc12)NC(=O)[C@@H](CO)NC(=O)[C@H]1CCCN1C(=O)[C@H](NC(=O)[C@@H](Cc1c[nH]c2ccccc12)NC(=O)[C@H]1CCCN1)C(C)C)C(=O)N1CCC[C@@H]1C(=O)N1CCC[C@@H]1C(=O)N[C@H](CCCNC(=N)N)C(=O)N[C@H](Cc1c[nH]cn1)C(=O)N[C@@H](C(N)=O)[C@H](C)O [Example 1, H-D-Pro-D-Trp-D-Val-D-Pro-D-Ser-D-Trp-D-Met-D-Pro-D-Pro-D-Arg-D-His-D-Thr-NH2] (HELM PEPTIDE1{[dP].[dW].[dV].[dP].[dS].[dW].[dM].[dP].[dP].[dR].[dH].[dT].[am]}$$$$V2.0)	25.1 ± 3	21.4 ± 2.1		half-life [4]: > 24 h
Antibody Avastin partially reduced and trapped with Ellman's reagent: bevacizumab (Avastin) antibody cargo, partially reduced and trapped with Ellman's reagent	0.064 ± 0.006		0.054 ± 0.005 (×10^6) cm/s	
Rhodamine b-L-Lys(Antibody)-D-Pro-D-Trp-D-Val-D-Pro-D-Ser-D-Trp-D-Met-D-Pro-D-Pro-D-Arg-D-His-D-Thr-NH2 [Example 20]			0.36 ± 019 (×10^6) cm/s	
nanoparticle superparamagnetic iron oxide (SPION)-Gly-D-Pro-D-Trp-D-Val-D-Pro-D-Ser-D-Trp-D-Met-D-Pro-D-Pro-D-Arg-D-His-D-Thr-NH2 ({SPION}-G[dP][dW][dV][dP][dS][dW][dM][dP][dP][dR][dH][dT]-NH2) [Example 11]	0.22 ± 0.05		0.19 ± 0.07 (×10^6) cm/s	

Further lines, with some results ahead:

Transport (%) (2 h) [1]	Papp [3] [×10⁻⁶ cm/s]	Compound	Papp (×10^6) cm/s [1]	also measured
10.1 ± 1.3	8.46 ± 2.1	CSCC[C@@H](NC(=O)[C@@H](Cc1c[nH]c2ccccc12)NC(=O)[C@@H](CO)NC(=O)[C@H]1CCCN1C(=O)[C@H](NC(=O)[C@@H](Cc1c[nH]c2ccccc12)NC(=O)[C@H]1CCCN1C(=O)[C@@H](N)Cc1ccc(O)c(O)c1)C(C)C)C(=O)N1CCC[C@@H]1C(=O)N1CCC[C@@H]1C(=O)N[C@H](CCCNC(=N)N)C(=O)N[C@H](Cc1c[nH]cn1)C(=O)N[C@@H](C(N)=O)[C@H](C)O [Example 8, L-dopa-D-Pro-D-Trp-D-Val-D-Pro-D-Ser-D-Trp-D-Met-D-Pro-D-Pro-D-Arg-D-His-D-Thr-NH2] (HELM PEPTIDE1{[N[C@@H](Cc1ccc(O)c(O)c1)C(=O)[*:2]].[dP].[dW].[dV].[dP].[dS].[dW].[dM].[dP].[dP].[dR].[dH].[dT].[am]}$$$$V2.0)		
14.9 ± 2.5	12.5 ± 5.2	H-THRPPMWSPVWP-NH2 [compound 1, H-L-Thr-L-His-L-Arg-L-Pro-L-Pro-L-Met-L-Trp-L-Ser-L-Pro-L-Val-L-Trp-L-Pro-NH2, reference compound]		Degradation / half-life time in human serum (in words) ([4]; 150 μM, 37° C., 90% human serum): rapidly degraded; half-life [4]: < 1 h
0.2 ± 0.04	0.14 ± 0.01	CSCC[C@@H](NC(=O)[C@@H](Cc1c[nH]c2ccccc12)NC(=O)[C@@H](CO)NC(=O)[C@H]1CCCN1C(=O)[C@H](NC(=O)[C@@H](Cc1c[nH]c2ccccc12)NC(=O)[C@H]1CCCN1C(=O)[C@@H](CCCCN)NC(=O)[C@@H](CCCCN)NC(=O)[C@@H](CC(C)C)NC(=O)[C@H](NC(=O)[C@@H](Cc1ccc2ccccc2c1)NC(=O)[C@@H](Cc1ccccc1)N(C)C(=O)[C@@H](C)N)C(C)C)C(C)C)C(=O)N1CCC[C@@H]1C(=O)N1CCC[C@@H]1C(=O)N[C@H](CCCNC(=N)N)C(=O)N[C@H](Cc1c[nH]cn1)C(=O)N[C@@H](C(N)=O)[C@H](C)O [Example 12, H-D-Ala-D-NMePhe-D-Nal(2)-D-Val-D-Leu-D-Lys-D-Lys-D-Pro-D-Trp-D-Val-D-Pro-D-Ser-D-Trp-D-Met-D-Pro-D-Pro-D-Arg-D-His-D-Thr-NH2] (HELM PEPTIDE1{[dA].[CN([C@H](Cc1ccccc1)C(=O)[*:2])[*:1]].[O=C([C@@H](Cc1ccc2ccccc2c1)N[*:1])[*:2]].[dV].[dL].[dK].[dK].[dP].[dW].[dV].[dP].[dS].[dW].[dM].[dP].[dP].[dR].[dH].[dT].[am]}$$$$V2.0)		
11.7 ± 6.4	9.9 ± 1.6	CSCC[C@@H](NC(=O)[C@H]1CCCN1C(=O)[C@H]1CCCN1C(=O)[C@@H](CCCNC(=N)N)NC(=O)[C@@H](Cc1c[nH]cn1)NC(=O)[C@H](N)[C@H](C)O)C(=O)N[C@H](Cc1c[nH]c2ccccc12)C(=O)N[C@H](CO)C(=O)N1CCC[C@@H]1C(=O)N[C@@H](C(=O)N[C@H](Cc1c[nH]c2ccccc12)C(=O)N1CCC[C@@H]1C(N)=O)C(C)C [compound 2, H-D-Thr-D-His-D-Arg-D-Pro-D-Pro-D-Met-D-Trp-D-Ser-D-Pro-D-Val-D-Trp-D-Pro-NH2, reference compound] (HELM PEPTIDE1{[dT].[dH].[dR].[dP].[dP].[dM].[dW].[dS].[dP].[dV].[dW].[dP].[am]}$$$$V2.0)		half-life [4]: > 24 h
17.1 ± 2.6	16.2 ± 1.3	CSCC[C@@H](NC(=O)[C@@H](Cc1c[nH]c2ccccc12)NC(=O)[C@@H](CO)NC(=O)[C@H]1CCCN1C(=O)[C@H](NC(=O)[C@@H](Cc1c[nH]c2ccccc12)NC(=O)[C@H]1CCCN1C(=O)c1ccc2c(c1)C(=O)OC21c2ccc(O)cc2Oc2cc(O)ccc21)C(C)C)C(=O)N1CCC[C@@H]1C(=O)N1CCC[C@@H]1C(=O)N[C@H](CCCNC(=N)N)C(=O)N[C@H](Cc1c[nH]cn1)C(=O)N[C@@H](C(N)=O)[C@H](C)O [Example 9, 5(6)-Carboxyfluorescein-D-Pro-D-Trp-D-Val-D-Pro-D-Ser-D-Trp-D-Met-D-Pro-D-Pro-D-Arg-D-His-D-Thr-NH2] (HELM PEPTIDE1{[O=C1OC2(c3ccc(O)cc3Oc3cc(O)ccc32)c2ccc(C(=O)[*:2])cc21].[dP].[dW].[dV].[dP].[dS].[dW].[dM].[dP].[dP].[dR].[dH].[dT].[am]}$$$$V2.0)		
